Measurements from patent US9694090B2, “Process for preparing hyperpolarized substrates and method for MRI” (priority 2010, dated 2017).

How the values were obtained:
[1] = DNP solid-state polarization signal and build-up (1.2 K, 3.35 T); settings: DNP at 1.2 K
Method: To this solution 1.1 mg (0.77 μmol) radical 1 was added. […] This entire sample was hyperpolarized under DNP conditions at 1.2 K in a 3.35 T magnetic field under irradiation with microwave (93.900 GHz) until the polarization was fully build-up. The polarization was monitored in solid state with small pulse angles (5 degree) collected every 300 s.
This entire sample was polarized under DNP conditions at 1.2 K in a 3.35 T magnetic field under irradiation with microwave (93.900 GHz) until the polarization was fully built-up. The polarization was monitored in solid state with small pulse angles (5 degree) collected every 300 s.
To this solution 0.77 mg (0.54 μmol) radical 1 was added. […] This entire sample was polarized under DNP conditions at 1.2 K in a 3.35 T magnetic field under irradiation with microwave (93.900 GHz) until the polarization was fully built-up. The polarization was monitored in solid state with small pulse angles (5 degree) collected every 300 s.
To this solution 1.65 mg (1.15 μmol) radical 1 was added. […] This entire sample was polarized under DNP conditions at 1.2 K in a 3.35 T magnetic field under irradiation with microwave (93.900 GHz) until the polarization was fully built-up. The polarization was monitored in solid state with small pulse angles (5 degree) collected every 300 s.
63.2 mg (0.33 mmol) of this sample was hyperpolarized under DNP conditions at 1.2 K in a 3.35 T magnetic field under irradiation with microwave (93.900 GHz) until the polarization was fully built-up.

[2] = Glass formation of the DNP preparation upon rapid freezing in liquid nitrogen; type: physicochemical; settings: for Glass formation upon rapid freezing in liquid nitrogen: dissolved in 12 M NaOH with radical 1; for Glass formation upon rapid freezing: with trityl radical, without addition of glass-forming agents
Method: Butyric acid (11.7 mg, 0.13 mmol) was placed into an Eppendorf tube and mixed with 9.0 mg of a glycerol solution containing 39 mM of Radical 1. This preparation was 7 M with respect to butyric acid.
Butyric anhydride (40 μl, 0.24 mmol) was added to an Eppendorf tube and mixed with 1 mg of Radical 3 in a total concentration of 15 mM. This preparation was 6.5 M with respect to butyric anhydride (which, upon hydrolysis provides a 13 M concentration in butyric acid molecules).
Butyric acetic anhydride (36 μl, 0.28 mmol) was added to an Eppendorf tube and mixed with 0.85 mg of acid form of Radical 3 in a total concentration of 15 mM. This preparation was 7.5 M with respect to butyric acetic acid.
Li-acetoacetate (22.4 mg, 0.21 mmol) was added to an Eppendorf tube and mixed with 28 μl of a DMSO preparation (25 mM Radical 3 and 0.8 mM 3-Gd). This preparation was 4 M with respect to Li-acetoacetate.
To an Eppendorf tube was added diketene (9.6 mg, 0.11 mmol) and mixed with 4.7 mg of a DMSO preparation of Radical 3 (45 mM) and 3-Gd (1.5 mM). This preparation was 8.5 M with respect to diketene.
Ethyl acetoacetate (45 μl, 0.34 mmol) was added to an Eppendorf tube and mixed with acid form of Radical 2 (0.7 mg, 0.65 μmol) in a total concentration of 15 mM. This preparation was 8 M with respect to ethyl acetoacetate.
Cis-aconitic acid (18.6 mg, 0.11 mmol) was added to an Eppendorf tube and mixed with a 32.5 μl DMSO preparation (25 mM Radical 3 and 0.8 mM 3-Gd). This preparation was 2.5 M with respect to cis-aconitic acid.
Cis-aconitic anhydride (188 mg, 1.2 mmol) was added to an Eppendorf tube and mixed with 2.85 mg (2 μmol) of Radical 1 and 0.98 mg of a 83 μmol/g solution of 3-Gd. This preparation was 9 M with respect to cis-aconitic anhydride.
Succinic acid (42.1 mg, 0.35 mmol) was added to an Eppendorf tube and mixed and mixed with 92 mg of a DMSO preparation (20 mM Radical 3 and 0.8 mM 3-Gd). This preparation was 4 M with respect to succinic acid.
Succinic anhydride (21.5 mg, 0.21 mmol) was added to an Eppendorf tube and mixed with 21.8 mg of a DMSO solution of Radical 3 (30 mM) and of 3-Gd (1 mM). This preparation was 6 M with respect to succinic anhydride.
Succinic-(1)-ethyl ester (111 mg, 0.75 mmol) was added to an Eppendorf tube and mixed with the carboxylic acid form of Radical 2 (2.4 mg, 1.5 μmol) and 3-Gd (3.4 μl of a 14.5 mM solution in water). This preparation was 6 M with respect to succinic-(1)-ethyl ester.
(§1) L-Glutamine (50.9 mg, 0.35 mmol) was added to an Eppendorf tube and dissolved in 29 μl of 12 M NaOH and mixed with 1.7 mg of radical 1 and 3-Gd (2.3 μl of a 14.5 mM water stock solution). This preparation was 4 M with respect to L-glutamine.

[3] = T1 relaxation time in solution at 14.1 T; type: physicochemical; settings: 14.1 T and 37° C.
Method: The ester was only partly hydrolyzed.
The T1 of the hydrolyzed product, succinate is 33 s (14.1 T and 37° C.).
The sample was dissolved in 5 ml phosphate buffer (100 mM, pH 7) with added one equivalent HCl. The pH is 7.1 after dissolution.
The pH is 7.2 after dissolution.

[4] = Degradation / isomerisation of the substrate in DNP preparation and dissolution (NMR)
Method: The entire composition from example 2a was transferred from the Eppendorf tube to a sample cup and the sample cup was inserted into a DNP polariser. The composition was hyperpolarised under DNP conditions at 1.2 K in a 3.35 T magnetic field under irradiation with microwave (93.915 GHz). The sample was hyperpolarized for 75 min.
The sample was dissolved in 5 ml phosphate buffer pH 7.3 (40 mM+EDTA).
The solution was collected directly into a 10 mm NMR tube and transferred to a 14.1 T magnet where a 90 degree 1D 13C-NMR spectrum was recorded.
(§2) The sample was dissolved in 5 ml water with added NaOH (125 μl of 12 M). The solution was collected directly into a 10 mm NMR tube and transferred to a 14.1 T magnet (pH 13) where a time series of 64 five degree 1D 13C-NMR spectra were recorded with a total delay between the pulses of 3 s.
(§3) The sample was dissolved in 5 ml water with added NaOH (200 μl of 12 M). The solution was collected directly into a 10 mm NMR tube and transferred to a 14.1 T magnet (pH 12.8) where a time series of 5 degree 1D 13C-NMR spectra were recorded with a total delay between the pulses of 3 s.
The sample was dissolved in 5 ml 40 mM phosphate buffer pH 7.3+100 mg/l EDTA, thus resulting in an ester concentration of 20 mM. 1 ml of the ester solution was injected through a transfer line into a 10 mm NMR tube placed at 14.1 T and 37° C. The 10 mm NMR tube contained a 500 μl solution of approximately 270 U of a carboxylic-ester hydrolase from porcine liver. A time series of 10 degree 1D 13C-NMR spectra were recorded with a total delay between the pulses of 3 s.
The sample was dissolved in 5 ml phosphate buffer (40 mM, pH 7.3) with added 30 μl 12 M NaOH. […] The solution was collected directly into a 10 mm NMR tube and transferred to a 14.1 T magnet where a time series of 5 degree 1D 13C-NMR spectra were recorded with a total delay between the pulses of 3 s.
(§4) The sample was dissolved in 6 ml water with added NaOH (190 μl of 12 M). The solution was collected directly into a 10 mm NMR tube and transferred to a 14.1 T magnet (pH 12.8) where a time series of 64 five degree 1D 13C-NMR spectra were recorded with a total delay between the pulses of 3 s.
as §1
N-acetyl-L-glutamine (57.2 mg, 0.3 mmol) was added to an Eppendorf tube and dissolved in 25.3 μl of 12 M NaOH and mixed with 1.9 mg of radical 1 and 3-Gd (2.3 μl of a 14.5 mM water stock solution).

[5] = target: T1, acylase from porcine kidney (Sus scrofa, UniProt P37111); assay: Enzymatic hydrolysis of the hyperpolarized N-acetyl amino acid with acylase, 13C-NMR time series; type: biochemical; settings: phosphate buffer pH 7.3, 37° C.
T1 construct: an acylase from porcine kidney; from tissue; host or cells: porcine kidney
T1 sequence (P37111 2-407 limits assumed): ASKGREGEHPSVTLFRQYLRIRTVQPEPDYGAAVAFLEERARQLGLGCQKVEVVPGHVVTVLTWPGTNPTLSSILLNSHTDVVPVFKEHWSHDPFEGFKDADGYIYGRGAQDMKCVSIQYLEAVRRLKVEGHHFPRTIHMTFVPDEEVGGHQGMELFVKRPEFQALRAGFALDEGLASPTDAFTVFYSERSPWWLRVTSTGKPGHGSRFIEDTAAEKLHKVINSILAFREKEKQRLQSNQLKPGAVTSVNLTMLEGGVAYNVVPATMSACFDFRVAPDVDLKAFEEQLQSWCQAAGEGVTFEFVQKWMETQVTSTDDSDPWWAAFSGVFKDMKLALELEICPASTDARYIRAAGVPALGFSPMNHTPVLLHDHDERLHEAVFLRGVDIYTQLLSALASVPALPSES
Method: The sample was hyperpolarized for 60 min.
The 10 mm NMR tube contained a 1 ml phosphate solution of approximately 90 U of an acylase from porcine kidney.
35 mg of N-acetyl glycine (117.1 g/mol, 0.298 mmol) was dissolved in 26 μl 12 M NaOH. Heating, sonication and vortexing was applied to create a clear glassing solution. The total weight of the sample was 71 mg (50 μl weigh 65 mg). 1.05 mg Radical 1 and 1.5 μl of a 3-Gd stock solution ([…]) was added. The total N-acetyl glycine concentration in the sample was 5.5 M, the radical concentration was 13.5 mM, and the 3-Gd concentration was 0.4 mM.
The sample was dissolved in 7 ml 40 mM phosphate buffer (40 mM, pH 7.3). […] The 10 mm NMR tube contained a 500 μl phosphate solution of approximately 230 U of an acylase (5.2 mg) from porcine kidney.

[6] = Hydrolysis of the DNP hyperpolarized precursor on dissolution with strong base, followed by 13C-NMR time series; type: physicochemical; settings: water with added NaOH
Method: The composition from example 1b (25 mg, 0.16 mmol) was transferred from the Eppendorf tube to a sample cup and the sample cup was inserted into a DNP polariser. The composition was hyperpolarised under DNP conditions at 1.2 K in a 3.35 T magnetic field under irradiation with microwave (93.915 GHz). The sample was hyperpolarized for 75 min.
The sample was dissolved in 4 ml water with added NaOH (50 μl of 12M solution). The pH of the dissolved sample was 12. The solution was collected directly into a 10 mm NMR tube and transferred to a 14.1 T magnet where a time series of 5 degree 1D 13C-NMR spectra were recorded with a total delay between the pulses of 1 s.
The composition from example is (33 mg, 0.25 mmol) was transferred from the Eppendorf tube to a sample cup and the sample cup was inserted into a DNP polariser. The composition was hyperpolarised under DNP conditions at 1.2 K in a 3.35 T magnetic field under irradiation with microwave (93.915 GHz). The sample was hyperpolarized for 90 min.
The sample was dissolved in 5 ml water with added NaOH (125 μl of 12M). The solution was collected directly into a 10 mm NMR tube and transferred to a 14.1 […]) T magnet where a time series of 5 degree 1D 13C-NMR spectra were recorded with a total delay between the pulses of 1 s.
The entire composition from example 2b was transferred from the Eppendorf tube to a sample cup and the sample cup was inserted into a DNP polariser. The composition was hyperpolarised under DNP conditions at 1.2 K in a 3.35 T magnetic field under irradiation with microwave (93.915 GHz). The sample was hyperpolarized for 3 hours.
as §2
The composition from example is (20.5 mg, 0.16 mmol) was transferred from the Eppendorf tube to a sample cup and the sample cup was inserted into a DNP polariser. The composition was hyperpolarised under DNP conditions at 1.2 K in a 3.35 T magnetic field under irradiation with microwave (93.915 GHz). The sample was hyperpolarized for 2 hours.
as §3
The composition from example 2b was melted on a water-bath and stirred with a magnetic stirrer. 45 mg of this preparation (0.29 mmol) was transferred from the Eppendorf tube to a sample cup and the sample cup was inserted into a DNP polariser. The composition was hyperpolarised under DNP conditions at 1.2 K in a 3.35 T magnetic field under irradiation with microwave (93.915 GHz). The sample was hyperpolarized for 90 min.
as §4

[7] = Glass formation of the DNP preparation upon rapid freezing in liquid nitrogen; type: physicochemical; settings: dissolved in heated water with Radical 1 and 3-Gd
[8] = system: carboxylic-ester hydrolase from porcine liver; assay: Enzymatic hydrolysis of the hyperpolarized ester with esterase, 13C-NMR time series; type: biochemical; settings: approximately 270 U esterase, phosphate buffer pH 7.3, 37° C.
Description: The ester was fully hydrolyzed to acetoacetate after 12s.

SMILES	Polarization build-up time constant [1] [s]	Glass formation upon rapid freezing in liquid nitrogen [2]	Glass formation upon rapid freezing [2]	further results
O=C1CCC([13C](=O)O)N1 (centres unmarked) [1-13C Pyroglutamic acid, reference compound]	2000	formed a glass	–	–
C=C(CC(=O)O)[13C](=O)O [1-13C Itaconic acid, reference compound]	1790	formed a glass	–	–
CC(=O)CC(=O)O [acetoacetate]	–	–	–	T1 of the C1 position in the hydrolyzed product [3]: 32 s; T1 of the hydrolyzed product [3]: 32 s; Degradation (decarboxylation) of acetoacetate formed ([4]; after esterase hydrolysis of ethyl acetoacetate, pH 7.3): No degradation; Degradation (decarboxylation) of acetoacetate formed ([4]; after hydrolysis of precursor with NaOH, pH 12.8-13): No substantial degradation
CCO[13C](=O)C1CSC(=O)N1 (centres unmarked) [1-13C OTZ ethyl ester]	1925	–	formed a glass	–
CC(=O)NCC(=O)O [N-acetyl glycine]	–	–	–	Time after which precursor was fully hydrolyzed ([5]; approximately 230 U acylase): 30 s
CCOC(=O)C1CCC(=O)N1 (centres unmarked) [1-13C pyroglutamic ethyl ester]	2070	–	formed a glass	Precursor hydrolyzed ([6]; in less than 10 s, pH 11-12.6): at least 95%
CC(=O)N[C@@H](CCC(N)=O)C(=O)O [N-acetyl-L-glutamine]	–	formed a glass	–	Time after which precursor was fully hydrolyzed ([5]; approximately 90 U acylase): 45 s; Degradation in the DNP preparation [4]: does not degrade; Degradation in the dissolution process ([4]; pH 7.3): does not degrade
O=C([O-])CCC(=O)C(=O)[O-].[Na+].[Na+] [2-oxoglutarate sodium salt]	–	–	–	Glass formation upon rapid freezing in liquid nitrogen [7]: formed a glass
CCOC(=O)CC(C)=O [Ethyl acetoacetate]	–	–	formed a glass	Precursor hydrolyzed ([6]; after 10 s, pH 12-13): approximately 20%; Time after which ester was fully hydrolyzed [8]: 12 s
C=C(CC(=O)OCC)[13C](=O)OCC [1-13C Itaconate diethyl ester]	2120	–	formed a glass	–
O=C1N[C@H]([13C](=O)O)CS1 [1-13C OTZ, 1-13C-L-oxothiazolidine-4-carboxylic acid, reference compound]	3500	formed a glass	–	–
